Test results: patent US8258168B2, “2H or 3H-benzo[E]indazol-1-YL carbamate derivatives, the preparation and therapeutic use thereof” (Sanofi, priority 2004, dated 2012)

How the values were obtained:
[1] = molecular target: T1, peripheral-type benzodiazepine receptors (PBR or p sites) (Rattus norvegicus, UniProt P16257); assay: Binding of [3H]Ro5-4864 to peripheral-type benzodiazepine receptors in rat kidney membranes
T1 construct: After decapitation, the kidney is removed and the tissue is homogenized; from tissue; host or cells: kidney membrane homogenate of male Sprague-Dawley rats

[2] = test system: motor neurons of the facial nucleus; assay: Test of survival of the motor neurons after sectioning the facial nerve in rats aged 4 days; assay type: in vivo, rat; settings: immature rats, facial nerve section, treated for 7 days
Description: Study of the Neuroprotective Activity
Test of Survival of the Motor Neurons after Sectioning the Facial Nerve in Rats Aged 4 Days
After lesion of the facial nerve in immature rats, the motor neurons of the facial nucleus experience neuronal death by apoptosis. Neuronal survival is evaluated using neuronal counting and histological methods.
Immature rats aged 4 days are anaesthetized with pentobarbital (3 mg/kg by the i.p. route). The right facial nerve is exposed and sectioned at its outlet from the stylomastoid foramen. After waking up, the young rats are returned to their mothers and are treated for 7 days with one or two daily administrations, by the oral or intraperitoneal route, at doses ranging from 1 to 10 mg/kg.
7 days after the lesion, the animals are decapitated and the brains are frozen in isopentane at −40° C. The entire facial […] is cut with a cryostat into sections with a width of 10 μm. The motor neurons are stained with cresyl violet and counted using the Histo™ software (Biocom™)

T1 sequence (P16257 whole entry): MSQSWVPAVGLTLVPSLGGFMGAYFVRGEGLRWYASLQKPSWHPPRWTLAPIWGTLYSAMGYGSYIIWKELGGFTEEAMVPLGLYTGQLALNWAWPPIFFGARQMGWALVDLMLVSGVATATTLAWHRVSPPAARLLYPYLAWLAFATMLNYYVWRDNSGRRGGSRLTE

melting point | SMILES | IC50 [1] | % increase in the survival of the neurons (10 mg/kg po) [2]
250 to 251 °C | CCN(CC)C(=O)Oc1c2c(nn1-c1ccncc1)CCc1cc(Cl)ccc1-2.Cl |  | 
146 to 148 °C | CC(C)N(C(=O)Oc1nn(-c2ccncc2)c2c1-c1ccc(Cl)cc1CC2)C(C)C.Cl |  | 
 | CCN(CC)C(=O)Oc1c2c(nn1-c1ccccc1)CCc1cc(Cl)ccc1-2 [compound 14] | 1.6 nM | 38%
 | CCN(CC)C(=O)Oc1c2c(nn1-c1ccc(F)cc1)CCc1ccccc1-2 [compound 20] | 2.8 nM | 59%
 | CCN(CC)C(=O)Oc1c2c(ccc3cc(Cl)ccc32)nn1-c1ccc(F)cc1 [compound 56] | 1.4 nM | 74%
